Literature values, collected in patent US20200268761A1 (CIPLA LIMITED, priority 2017, published 2020).

Tests used:
CYP3A4 = CYP3A4 (Homo sapiens, UniProt P08684); details: major drug metabolizing enzyme
p-glycoprotein = p-glycoprotein (Homo sapiens, UniProt P08183)
p-glycoprotein, sequence (P08183 whole entry): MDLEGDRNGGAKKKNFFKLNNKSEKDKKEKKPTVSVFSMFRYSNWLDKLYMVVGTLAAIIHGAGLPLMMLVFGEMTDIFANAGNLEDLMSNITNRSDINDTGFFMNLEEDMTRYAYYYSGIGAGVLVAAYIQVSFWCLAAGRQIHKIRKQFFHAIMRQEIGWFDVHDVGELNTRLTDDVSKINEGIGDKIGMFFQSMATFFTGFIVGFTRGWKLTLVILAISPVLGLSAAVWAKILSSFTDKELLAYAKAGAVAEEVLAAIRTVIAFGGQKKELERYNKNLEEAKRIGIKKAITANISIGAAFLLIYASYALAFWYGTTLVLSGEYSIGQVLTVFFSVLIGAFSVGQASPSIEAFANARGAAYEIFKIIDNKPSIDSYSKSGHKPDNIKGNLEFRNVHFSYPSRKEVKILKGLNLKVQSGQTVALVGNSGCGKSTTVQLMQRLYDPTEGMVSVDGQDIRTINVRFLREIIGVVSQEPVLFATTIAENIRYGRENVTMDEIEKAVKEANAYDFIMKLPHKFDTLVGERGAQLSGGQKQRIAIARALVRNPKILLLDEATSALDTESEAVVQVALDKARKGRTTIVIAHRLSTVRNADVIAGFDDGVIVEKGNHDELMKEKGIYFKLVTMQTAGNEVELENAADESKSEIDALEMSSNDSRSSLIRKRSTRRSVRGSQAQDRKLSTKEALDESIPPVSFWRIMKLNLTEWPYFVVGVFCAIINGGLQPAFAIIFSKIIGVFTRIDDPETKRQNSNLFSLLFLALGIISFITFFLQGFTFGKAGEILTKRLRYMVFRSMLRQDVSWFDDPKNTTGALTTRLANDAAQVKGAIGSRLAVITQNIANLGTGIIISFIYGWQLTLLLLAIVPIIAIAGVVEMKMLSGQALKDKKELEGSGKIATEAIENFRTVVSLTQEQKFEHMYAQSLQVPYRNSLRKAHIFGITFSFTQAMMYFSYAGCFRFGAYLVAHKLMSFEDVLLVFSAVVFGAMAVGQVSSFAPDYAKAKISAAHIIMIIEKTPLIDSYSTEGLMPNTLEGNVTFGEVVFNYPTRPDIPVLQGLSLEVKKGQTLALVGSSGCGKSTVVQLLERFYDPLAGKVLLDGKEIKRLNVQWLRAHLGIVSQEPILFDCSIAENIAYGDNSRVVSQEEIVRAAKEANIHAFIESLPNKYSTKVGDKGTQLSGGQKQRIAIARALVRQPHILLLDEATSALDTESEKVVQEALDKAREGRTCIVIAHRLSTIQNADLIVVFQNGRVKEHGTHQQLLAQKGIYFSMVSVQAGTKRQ

CYP3A4, sequence (P08684 whole entry, species assumed): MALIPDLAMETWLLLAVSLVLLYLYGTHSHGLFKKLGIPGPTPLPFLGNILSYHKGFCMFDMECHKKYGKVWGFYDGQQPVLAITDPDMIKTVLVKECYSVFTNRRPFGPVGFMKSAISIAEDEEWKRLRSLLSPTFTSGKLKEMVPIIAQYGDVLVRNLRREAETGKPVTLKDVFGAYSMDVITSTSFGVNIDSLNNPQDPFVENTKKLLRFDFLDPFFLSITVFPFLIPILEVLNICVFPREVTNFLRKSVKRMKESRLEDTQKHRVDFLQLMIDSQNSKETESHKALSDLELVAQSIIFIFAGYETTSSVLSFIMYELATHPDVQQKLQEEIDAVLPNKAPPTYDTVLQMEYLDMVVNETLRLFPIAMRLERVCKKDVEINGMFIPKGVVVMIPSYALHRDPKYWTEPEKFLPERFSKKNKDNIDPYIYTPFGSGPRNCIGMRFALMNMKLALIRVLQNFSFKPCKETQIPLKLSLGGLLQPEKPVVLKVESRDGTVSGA

| SMILES | solubility in HCl at pH 1.2 (HCl, pH 1.2) | solubility in N,N-dimethylformamide, tetrahydrofuran and dichloromethane (N,N-dimethylformamide, tetrahydrofuran, dichloromethane) | solubility in acetone and methanol (acetone, methanol) | solubility in ethyl acetate, ethanol and acetonitrile (ethyl acetate, ethanol, acetonitrile) | solubility in non-polar solvents (non-polar solvents such as hexane and heptanes) | solubility in water (water, ibrutinib base) | inhibition of CYP3A4 (CYP3A4) | inhibition of p-glycoprotein (p-glycoprotein) |
| --- | --- | --- | --- | --- | --- | --- | --- | --- |
| C=CC(=O)N1CCC[C@@H](n2nc(-c3ccc(Oc4ccccc4)cc3)c3c(N)ncnc32)C1 [Ibrutinib] | slightly soluble | freely soluble | soluble | sparingly soluble | practically insoluble | practically insoluble |  |  |
| O=C(/C=C/C=C/c1ccc2c(c1)OCO2)N1CCCCC1 [Piperine, (E.E.) 1˜[5,3-benzodioxyl-5-yl)-1-oxo-2,4-pentadienyl-piperidine] |  |  |  |  |  |  | inhibits | inhibits |
